The data set relates to rodent carcinogenicity bioassays, tumor incidence. As to the kind of experiment: CCRIS carcinogenicity studies. Particulars: Dose: 0, Dose: 0. An outline of the steps: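 Archive of carcinogenicity, mutagenicity, tumor promotion and tumor inhibition results drawn from journals, NCI reports and other sources, expert-reviewed; covers 1985-2011 and is no longer updated.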

Active and inactive are the calls of the source. How the calls were made is not given here.

Consider `c1ccccc1`, for which the carcinogen call was “active; positive (highest dose)” (Species: Mouse, Strain/Sex: C57BL/6 (heterozygous Trp53-deficient)/Male, Route: Inhalation, 100, 300 ppm 6 hr/d, 5 d/wk for 26 wks, then no exposure for lifetime, 100, 300 ppm 6 hr/d, 5 d/wk for 26 wks, then no exposure for lifetime, Tumor Site: Type of Lesion: Blood: hematopoietic neoplasms (325, 83,100%). Lymphoid tissue: thymic lymphoma (4, 50, 25%)); “inactive; negative” (Species: Mouse, Strain/Sex: C57BL/6 (homozygous Trp53-deficient)/Male, Route: Inhalation, 33, 100, 300 ppm 6 hr/d, 5 d/wk for 26 wks, then no exposure for lifetime, 33, 100, 300 ppm 6 hr/d, 5 d/wk for 26 wks, then no exposure for lifetime); “active; positive (highest dose)” (Species: Mouse, Strain/Sex: C57BL/6 (wild type)/Male, Route: Inhalation, 33, 100, 300 ppm 6 hr/d, 5 d/wk for 26 wks, then no exposure for lifetime, 33, 100, 300 ppm 6 hr/d, 5 d/wk for 26 wks, then no exposure for lifetime, Tumor Site: Type of Lesion: Blood: Hematopoietic neoplasms (10, 21,16, 56%). Lymphoid tissue: Thymic lymphoma (0, 0,11, 28%)); “inactive; negative” (Species: Mouse, Strain/Sex: C57BL/6 (wild type)/Male, Route: Inhalation, 100, 300 ppm 6 hr/d, 5 d/wk for 26 wks, then no exposure for lifetime, 100, 300 ppm 6 hr/d, 5 d/wk for 26 wks, then no exposure for lifetime, Tumor Site: Type of Lesion: Blood: hematopoietic neoplasms (8, 25,30%). Lymphoid tissue: thymic lymphoma (0,17, 0%)); “active; positive” (Species: RAT, Strain/Sex: F344/FEMALE, Route: GAVAGE, 25, 50, 100 MG/KG IN CORN OIL 5 D/WK FOR 103 WK, 25, 50, 100 MG/KG IN CORN OIL 5 D/WK FOR 103 WK, Tumor Site: Type of Lesion: ORAL CAVITY: SQUAMOUS CELL PAPILLOMA OR CARCINOMA, EAR (ZYMBAL GLAND): CARCINOMA, ADENOMA OR CARCINOMA); “active; positive” (Species: RAT, Strain/Sex: F344/MALE, Route: GAVAGE, 50, 100, 200 MG/KG IN CORN OIL 5 D/WK FOR 103 WK, 50, 100, 200 MG/KG IN CORN OIL 5 D/WK FOR 103 WK, Tumor Site: Type of Lesion: INTEGUMENTARY SYSTEM (SKIN): SQUAMOUS CELL PAPILLOMA, SQUAMOUS CELL CARCINOMA, ORAL CAVITY: SQUAMOUS CELL PAPILLOMA, SQU). In addition, the carcinogen call reads like this: (Species: RAT, Strain/Sex: SPRAGUE-DAWLEY/FEMALE, Route: GAVAGE, 50, 250 MG/KG BW IN OLIVE OIL 1/D 4-5 D/WK FOR 52 WK (STUDY DURATION: LIFETIME), 50, 250 MG/KG BW IN OLIVE OIL 1/D 4-5 D/WK FOR 52 WK (STUDY DURATION: LIFETIME), Tumor Site: Type of Lesion: [BRAIN WAS ONLY SITE EVALUATED]) “inactive; negative”; (Species: RAT, Strain/Sex: SPRAGUE-DAWLEY/FEMALE, Route: GAVAGE, 50, 250 MG/KG BW, 1/D, 4-5 D/WK FOR 52 WK, 50, 250 MG/KG BW, 1/D, 4-5 D/WK FOR 52 WK, Tumor Site: Type of Lesion: ZYMBAL GLAND: CARCINOMA, MAMMARY GLAND: CARCINOMA) “active; positive”; (Species: RAT, Strain/Sex: SPRAGUE-DAWLEY/MALE,FEMALE, Route: GAVAGE, 500 MG/KG BW, 1/WK, Tumor Site: Type of Lesion: ORAL CAVITY: SQUAMOUS CELL CARCINOMA, ZYMBAL GLAND: CARCINOMA) “active; positive”; (Species: RAT, Strain/Sex: SPRAGUE-DAWLEY/MALE, Route: GAVAGE, 50, 250 MG/KG BW IN OLIVE OIL 1/D 4-5 D/WK FOR 52 WK (STUDY DURATION: LIFETIME), 50, 250 MG/KG BW IN OLIVE OIL 1/D 4-5 D/WK FOR 52 WK (STUDY DURATION: LIFETIME), Tumor Site: Type of Lesion: [BRAIN WAS ONLY SITE EVALUATED]) “inactive; negative”; (Species: RAT, Strain/Sex: SPRAGUE-DAWLEY/MALE, Route: GAVAGE, 50, 250 MG/KG BW, 1/D, 4-5 D/WK FOR 52 WK, 50, 250 MG/KG BW, 1/D, 4-5 D/WK FOR 52 WK, Tumor Site: Type of Lesion: HEMATOPOIETIC SYSTEM (LEUKEMIA)) “active; positive”; (Species: RAT, Strain/Sex: STRAIN-CD/FEMALE, Route: INHALATION, 200 PPM 4 HR/D 5 D/WK FOR 7 WK THEN 7 HR/D FOR 12 WK THEN 300 PPM 7 HR/D 5 D/WK FOR 85 WK (STUDY DURATION: LIFESPAN), Tumor Site: Type of Lesion: MAMMARY GLAND: ADENOCARCINOMA, ORAL CAVITY: CARCINOMA, ZYMBAL GLAND: CARCINOMA, Tumor Site: Type of Lesion: MAMMARY GLAND: ADENOCARCINOMA, ORAL CAVITY: CARCINOMA, ZYMBAL GLAND: CARCINOMA) “active; positive”. Further, the carcinogen call runs as follows: (Species: RAT, Strain/Sex: STRAIN-CD/FEMALE, Route: INHALATION, 200 PPM 4 HR/D FOR 7 WK THEN 7 HR/D FOR 12 WK THEN 300 PPM 7 HR/D 5 D/WK FOR 85 WK TO RATS ALSO EXPOSED IN UTERO (STU, Tumor Site: Type of Lesion: ZYMBAL GLAND: CARCINOMA, ORAL CAVITY: CARCINOMA, NASAL CAVITY: CARCINOMA, MAMMARY GLAND: ADENOCARCINOMA, LIVER: HEPATOMA, Tumor Site: Type of Lesion: ZYMBAL GLAND: CARCINOMA, ORAL CAVITY: CARCINOMA, NASAL CAVITY: CARCINOMA, MAMMARY GLAND: ADENOCARCINOMA, LIVER: HEPATOMA) “active; positive”; (Species: RAT, Strain/Sex: STRAIN-CD/FEMALE, Route: INTRAGASTRIC, 50, 250 MG/KG IN OLIVE OIL 1/D 4-5 D/WK FOR 52 WK (STUDY DURATION: LIFESPAN), 50, 250 MG/KG IN OLIVE OIL 1/D 4-5 D/WK FOR 52 WK (STUDY DURATION: LIFESPAN), Tumor Site: Type of Lesion: ZYMBAL GLAND: CARCINOMA) “active; positive”; (Species: RAT, Strain/Sex: STRAIN-CD/FEMALE, Route: INTRAGASTRIC, 500 MG/KG IN OLIVE OIL 1/D 4-5 D/WK FOR 104 WK (STUDY DURATION: 104 WK)) “inactive; negative”; (Species: RAT, Strain/Sex: STRAIN-CD/FEMALE, Route: INTRAGASTRIC, 500 MG/KG IN OLIVE OIL 1/D 4-5 D/WK FOR 104 WK (STUDY DURATION: LIFESPAN), Tumor Site: Type of Lesion: ZYMBAL GLAND: CARCINOMA, LIVER: ANGIOSARCOMA, ORAL CAVITY: CARCINOMA, HEMOLYMPHORETICULAR: TUMOR, Tumor Site: Type of Lesion: ZYMBAL GLAND: CARCINOMA, LIVER: ANGIOSARCOMA, ORAL CAVITY: CARCINOMA, HEMOLYMPHORETICULAR: TUMOR) “active; positive”; (Species: RAT, Strain/Sex: STRAIN-CD/MALE, Route: INHALATION, 200 PPM 4 HR/D 5 D/WK FOR 7 WK THEN 7 HR/D FOR 12 WK THEN 300 PPM 7 HR/D 5 D/WK FOR 85 WK TO RATS ALSO EXPOSED IN UTE, Tumor Site: Type of Lesion: ZYMBAL GLAND: CARCINOMA) “active; positive”; (Species: RAT, Strain/Sex: STRAIN-CD/MALE, Route: INTRAGASTRIC, 50, 250 MG/KG IN OLIVE OIL 1/D 4-5 D/WK FOR 52 WK (STUDY DURATION: LIFESPAN), 50, 250 MG/KG IN OLIVE OIL 1/D 4-5 D/WK FOR 52 WK (STUDY DURATION: LIFESPAN), Tumor Site: Type of Lesion: HEMOLYMPHORETICULAR SYSTEM: TUMOR) “active; positive”. The carcinogen call was “inactive; negative” (Species: RAT, Strain/Sex: STRAIN-CD/MALE, Route: INTRAGASTRIC, 500 MG/KG IN OLIVE OIL 1/D 4-5 D/WK FOR 104 WK (STUDY DURATION: 104 WK)); “active; positive” (Species: RAT, Strain/Sex: STRAIN-CD/MALE, Route: INTRAGASTRIC, 500 MG/KG IN OLIVE OIL 1/D 4-5 D/WK FOR 104 WK (STUDY DURATION: LIFESPAN), Tumor Site: Type of Lesion: ZYMBAL GLAND: CARCINOMA, ORAL CAVITY: CARCINOMA, NASAL CAVITY: CARCINOMA, SKIN: CARCINOMA, Tumor Site: Type of Lesion: ZYMBAL GLAND: CARCINOMA, ORAL CAVITY: CARCINOMA, NASAL CAVITY: CARCINOMA, SKIN: CARCINOMA); “active; positive” (Species: RAT, Strain/Sex: WISTAR/FEMALE, Route: GAVAGE, 500 MG/KG IN OLIVE OIL 1/D FOR 4 TO 5 D/WK FOR 104 WK (STUDY DURATION: LIFETIME), Tumor Site: Type of Lesion: ZYMBAL GLAND: CARCINOMA, ORAL CAVITY: CARCINOMA, NASAL CAVITY: CARCINOMA, Tumor Site: Type of Lesion: ZYMBAL GLAND: CARCINOMA, ORAL CAVITY: CARCINOMA, NASAL CAVITY: CARCINOMA); “active; positive” (Species: RAT, Strain/Sex: WISTAR/FEMALE, Route: INTRAGASTRIC, 500 MG/KG BW IN OLIVE OIL 1/D 4-5 D/WK FOR 104 WK (STUDY DURATION: LIFESPAN), Tumor Site: Type of Lesion: ZYMBAL GLAND: CARCINOMA, MAMMARY GLAND: ADENOCARCINOMA, HEMOLYMPHORETICULAR SYSTEM: TUMOR, Tumor Site: Type of Lesion: ZYMBAL GLAND: CARCINOMA, MAMMARY GLAND: ADENOCARCINOMA, HEMOLYMPHORETICULAR SYSTEM: TUMOR); “active; positive” (Species: RAT, Strain/Sex: WISTAR/MALE, Route: GAVAGE, 500 MG/KG IN OLIVE OIL 1/D FOR 4 TO 5 D/WK FOR 104 WK (STUDY DURATION: LIFETIME), Tumor Site: Type of Lesion: ZYMBAL GLAND: CARCINOMA, ORAL CAVITY: CARCINOMA, NASAL CAVITY: CARCINOMA, Tumor Site: Type of Lesion: ZYMBAL GLAND: CARCINOMA, ORAL CAVITY: CARCINOMA, NASAL CAVITY: CARCINOMA); “active; positive” (Species: RAT, Strain/Sex: WISTAR/MALE, Route: INTRAGASTRIC, 500 MG/KG BW IN OLIVE OIL 1/D 4-5 D/WK FOR 104 WK (STUDY DURATION: LIFESPAN), Tumor Site: Type of Lesion: ZYMBAL GLAND: CARCINOMA).

These data come from PubChem BioAssay AID1259411 (Chemical Carcinogenesis Research Information System (CCRIS), 2018).
